# Measured values from PMC11899342, “Novel Triazeneindole Antibiotics: Synthesis and Hit-to-Lead Optimization” (International Journal of Molecular Sciences, 2025).
# Assay: Stability in artificial intestinal juice
# Type: in vitro ADME
# Description: During ADME studies, the concentration of the compounds was analyzed using ultra-performance liquid chromatography (UPLC) coupled with tandem mass spectrometry (MS/MS) in the multiple reaction monitoring (MRM) mode. A quantitative analysis was performed using the internal standard (IS) calibration method, with tolbutamide as the IS.
# The analyses were carried out on a system composed of an Agilent 1290 Infinity UPLC system (Agilent Technologies, USA) connected by ESI interface to a tandem quadrupole mass spectrometer QTRAP 6500 (AB Sciex Corp, Framingham, MA, USA). The separation was conducted on an YMC Triart C18 50 × 2 mm, 1.9 μm column, which was kept at 35 °C. The samples were cooled to 8 °C in an autosampler, and aliquots of 1 µL were delivered onto the column. Elution was performed using gradients of A (0.1% formic acid in water) and B (0.1% formic acid in acetonitrile), at the flow rate 0.35 mL/min. […] The declustering potential was 31 V for BX and 93 V for IS, resepectively; the collision energy was attuned to 17 eV; the collision cell exit potential was 10 V for BX and 8 V for IS MRM, respectively; the analyses were recorded for 305 → 234 (BX) and 271 → 172 (tolbutamide). […]
smiles,measurement,setting,value
"CCOC(=O)c1[nH]c2cc(F)ccc2c1/N=N/N1CCCC1 [BX-SI043, Ethyl (E)-6-fluoro-3-(pyrrolidin-1-yldiazenyl)-1H-indole-2-carboxylate]",half-life at 1 µM,"artificial intestinal juice with pancreatin, pH 6.8, pancreatin, 37 °C, 1 μM, read-out: t1/2 in artificial intestinal juice (converted)",1 h
same,metabolism in intestinal juice after 4 h of incubation,"pH 6.8, 37 °C, 4 h",fully metabolized
